The values below are quoted from earlier work in patent US20240075184A1, “BIODEGRADABLE IMPLANTS WITH ANTICORROSIVE COATINGS” (University of Georgia Research Foundation, Inc., priority 2021, published 2024).

Like-named read-outs stand apart in the source and are kept apart here.

For data set [1] the following is noted: 0.4 M in corrosion solution, high-purity Mg.
For data set [2] the following is noted: 0.4 M in corrosion solution, Mg alloy AZ31.

As for `O=C1C=C(O)C(=O)c2ccccc21` [Lawsone, 2-hydroxy-1,4-napthoquinone], the inhibition efficiency in data set [1] is 97%; in data set [2] it was 90%.
